Tests used:
[1] = tested on: Male C57BL/6J mice on a high-fat, high carbohydrate diet; experiment: High fat diet-induced steatosis and liver function in mice (histology, liver triglycerides, circulating AST/ALT); type: in vivo; details: vs vehicle
Method: (§1) Male C57BL/6J mice (8-10 weeks of age) were placed on a high-fat, high carbohydrate diet (F3282, Bio-Serv) for the duration for the experiments. After 6 weeks of the special diet, mice were intraperitoneally injected 2 times per week with 25 μg of dextran (vehicle) or 25 μg of LNFPIII conjugated with dextran (LNFPIII-dex). A second cohort was treated with 0.9% NaCl or SEA dissolved in 0.9% NaCl (25 μg/mouse/twice a week). Metabolic studies started 4 weeks after LNFPIII or SEA treatment and were conducted after 6 hrs of fasting. Animals were sacrificed at the 6th week of treatment for serum and tissue collection. Most experiments were repeated in two cohorts (n=4-7/treatment). Body weight and food intake were monitored weekly.
Circulating levels of ALT and AST, markers of overall liver function, were measured using commercial kits as described in Liu et al. (JBC 2011; 286:1237-47).
The Dana Farber/Harvard Cancer Center Research Pathology Cores provided all histological services and preliminary assessments by a pathologist. Briefly, tissues were collected from animals and fixed in 10% formalin (liver) for 48 hours. Fixed samples were rinsed in PBS and sent to the histology core to be paraffin embedded, sectioned, and stained with hematoxylin and eosin according to standard procedures. A staff pathologist analyzed the samples for signs of inflammation, fatty liver, fibrosis, and other pathologies associated with the liver.
In this example, the ability of LNFPIII or SEA to prevent high fat diet-induced steatosis and preserve liver function was examined. Mice were injected with either vehicle (dextran, 25 μg), LNFPIII conjugated to dextran (25 μg), or SEA twice a week (n=5 for each group) as described in the Methods section.
To determine whether overall liver function was affected by LNFPIII treatment, circulating levels of AST and ALT were also examined.

[2] = tested on: livers of mice; details: mouse, in vivo
[3] = tested on: FXRα−/− mice; experiment: LNFPIII treatment of FXRα−/− mice (liver mRNA, hepatic triglyceride, serum AST/ALT); type: in vivo
Description: Male C57BL/6J mice (8-10 weeks of age) were purchased from The Jackson Laboratory (Bar Harbor, Me.). FXR α−/− mice (both in the C57BL/6J background) were obtained from The Jackson Laboratory. All animal studies were approved by the Harvard Medical Area Standing Committee on Animals.
as §1
Furthermore, to determine whether FXRα mediated the effects of LNFPIII on lipogenesis and fatty acid oxidation, primary hepatocytes were isolated from wild type or FXRα^−/− mice, cultured, and tested for de novo lipogenesis and fatty acid oxidation.

[4] = tested on: human FXRα promoter 2 (FXRα3/α4); experiment: Luciferase reporter assay, FXRα promoter 2, in HepG2 cells; type: cell-based
Description: (§2) The upstream promoter 1 and downstream promoter 2 regions of the human FXRα gene were cloned into the pGL3-basic luciferase reporter construct and transfected into HepG2 cells in a 96-well format or primary hepatocytes in a 24-well format using a luciferase system (Promega). A β-galactosidase reporter construct was used as a transfection control. Promoters 1 and 2 of the human FXRα gene were PCR amplified and cloned into the pGL3-basic luciferase reporter (Promega). Point mutations were introduced using the site-directed mutagenesis kit (Stratagene).
(§3) To examine the signalling pathways through which LNFPIII regulates FXRα activity, the activities of luciferase reporters driven by upstream (promoter 1) or downstream (promoter 2) regulatory regions were examined in HepG2 cells (human hepatoma cells). Reporters driven by a 2 kb fragment of human FXRα promoter 1 or a 0.13 kb fragment of human FXRα promoter 2 were transfected into HepG2 cells. Twenty-four hours after transfection, cells were treated with or without LNFPIII (20 μg/ml) or SEA (2 μg/ml) for an additional 24 hours.
To gain insight into the region of promoter 2 responsible for promoter activation, the minimal LNFPIII responsive region was determined through a series of promoter deletion mutants.

[5] = tested on: Erk; experiment: Immunoblot of phospho-Erk in liver lysates of treated mice; type: in vivo; details: FIG. 3f
Method: FIG. 3F (top panel) is an immunoblot for levels of phosphor-Erk (p-Erk) and total Erk (t-Erk) in liver lysates prepared from vehicle or LNFPIII treated mice (n=5, showing representative 3 samples/treatment). Actin levels served as a loading control. FIG. 3F (bottom panel) is a bar graph depicting the densitometric analysis of the immunoblot from FIG. 3F (top panel). Results are presented as mean±SEM. *p<0.05.
(§4) For Western blot analyses, tissue and cell lysates were prepared in lysis buffer (20 mM Tris-HCl, 100 mM NaCl, 1 mM EDTA, NP-40, glycerol, PMSF, and DTT) in the presence of protease and phosphatase inhibitors. The four FXRα (NR1H4) isoforms were based on previous reports, which were originally designated as FXRα1/α2 and FXRβ1/β2 (Huber et al., Gene 2002; 290:35-43; Zhang et al., JBC 2003; 278:104-10). The latter were renamed FXRα3/α4 to avoid confusion with rodent FXRβ (NR1H5) (Lefebvre et al., Physiol Rev 2009; 89:147-91).

[6] = tested on: primary mouse hepatocytes
[7] = tested on: primary mouse hepatocytes; details: PD98059 1 hour prior to overnight LNFPIII, FIG. 3i
[8] = tested on: primary hepatocytes
[9] = tested on: Erk; experiment: Immunoblot of phospho-Erk in primary hepatocytes; type: cell-based, mouse; details: PD98059 1 hour prior to overnight LNFPIII, FIG. 3g
Method: FIG. 3G (left panel) is an immunoblot for levels of phospho-Erk (p-Erk) and total Erk (t-Erk) in primary hepatocytes treated with vehicle, LNFPIII, PD90859, or LNFPIII+PD98059. Cells were pretreated with PD98059 for 1 hour prior to overnight LNFPIII treatment. Actin levels served as a loading control. FIG. 3G (right panel) is a bar graph depicting the densitometric analysis of the immunoblot from FIG. 3G (left panel). Results are presented as mean±SEM.
FIG. 3H is an immunoblot for levels of p-Erk and t-Erk in primary hepatocytes treated with vehicle, SEA, or SEA+PD98059. Cells were pretreated with PD98059 for 1 hour prior to overnight SEA treatment. Actin levels served as a loading control.
as §4

[10] = tested on: human FXRα promoter 1 (FXRα1/α2); experiment: Luciferase reporter assay, FXRα promoter 1, in HepG2 cells; type: cell-based; details: with or without LNnT, p<0.05, FIG. 4b
Method: HepG2 cells, obtained from ATCC (#HB-8065), were cultured in Eagle's minimal essential media supplemented with non-essential amino acids, L-glutamine, sodium pyruvate, sodium bicarbonate, 10% fetal bovine serum, and antibiotics.
as §2
as §3, with “Both human and mouse FXRα contain two major promoters (FIG. 2c). […] To” for “To”

[11] = high fat diet mice, p<0.05, FIG. 1d/1e
[12] = FIG. 2d, primary hepatocytes treated for 24 hours
[13] = FIG. 2d, primary hepatocytes treated for 24 hours, p<0.05

Compound: lacto-N-fucopentaose III [LNFPIII]
- high fat diet-induced hepatic lipid accumulation (histology) ([1]; 25 μg i.p. twice a week, 6 weeks, FIG. 1a): less high fat diet-induced hepatic lipid accumulation
- levels of triglycerides in livers ([1]; 25 μg twice a week, p<0.05, FIG. 1b): significantly lower levels
- circulating levels of ALT [1, 11]: significantly reduced levels
- circulating levels of AST [1, 11]: significantly reduced levels
- ACC1/2 mRNA in livers [2]: significantly reduced
- Arg1 (M2 marker) mRNA in liver tissue [2]: significantly higher levels
- F4/80 mRNA in liver tissue [2]: significantly lower levels
- FAS mRNA in livers [2]: significantly reduced
- IL-1β mRNA in liver tissue [2]: unchanged
- IL-6 mRNA in liver tissue [2]: significantly lower levels
- Mgl1 (M2 marker) mRNA in liver tissue [2]: significantly higher levels
- SCD1 mRNA in livers [2]: significantly reduced
- SREBP-1c mRNA in livers [2]: significantly reduced
- β-oxidation gene expression in livers [2]: did not affect
- reduction in serum ALT concentration, wild type vs FXR−/− mice ([3]; FIG. 2i, p<0.05): required FXRα expression
- reduction in serum AST concentration, wild type vs FXR−/− mice ([3]; FIG. 2i, p<0.05): required FXRα expression
- reduction in hepatic triglyceride content, wild type vs FXR−/− mice ([3]; FIG. 2h, p<0.05): required FXRα expression
- Acc1 mRNA expression in FXRα−/− mice ([3]; livers, FIG. 2f): did not reduce
- Acc2 mRNA expression in FXRα−/− mice ([3]; livers, FIG. 2f): did not reduce
- Fas mRNA expression in FXRα−/− mice ([3]; livers, FIG. 2f): did not reduce
- Scd1 mRNA expression in FXRα−/− mice ([3]; livers, FIG. 2f): did not reduce
- Srebp mRNA expression in FXRα−/− mice ([3]; livers, FIG. 2f): did not reduce
- activation of FXRα promoter 2 reporter with mutated overlapping AP-1 sites (site 3) ([4]; HepG2, site-directed mutagenesis, FIG. 3d, 3e): two overlapping AP-1 sites were required for the activation
- Erk phosphorylation in liver [5]: increased
- ability of LNFPIII to suppress lipid synthesis in presence of PD98059 [6]: dependent on Erk activity and FXRα
- lipogenesis in primary hepatocytes ([6]; 20 μg/ml, 24 hours): significantly suppressed
- ability of LNFPIII to increase β-oxidation in presence of PD98059 [7]: dependent on Erk activity and FXRα
- β-oxidation gene expression in primary hepatocytes [8]: did not affect
- FXRα1/α2 mRNA expression [8, 12]: remained unchanged
- LXRα mRNA expression [8, 12]: remained unchanged
- BSEP transcripts [8, 13]: significantly upregulated
- OATP transcripts [8, 13]: significantly upregulated
- PLTP transcripts [8, 13]: significantly upregulated
- SHP transcripts [8, 13]: significantly upregulated
- FXRα3/α4 transcripts ([8]; FIG. 2d, primary hepatocytes treated for 24 hours, vs vehicle, p<0.05): significantly upregulated

Compound: COc1cccc(-c2cc(=O)c3ccccc3o2)c1N [PD98059, reference compound]
- responsiveness of the FXRα promoter 2 to LNFPIII in presence of PD98059 [4]: completely abolished
- activation of Erk in response to LNFPIII in presence of PD98059 [9]: completely abolished
- ability of LNFPIII to suppress lipid synthesis in presence of PD98059 [6]: completely abolished
- ability of LNFPIII to increase β-oxidation in presence of PD98059 [7]: completely abolished

Compound: CC(=O)N[C@H]1[C@H](O[C@H]2[C@@H](O)[C@@H](CO)O[C@@H](O[C@H]3[C@H](O)[C@@H](O)C(O)O[C@@H]3CO)[C@@H]2O)O[C@H](CO)[C@@H](O[C@@H]2O[C@H](CO)[C@H](O)[C@H](O)[C@H]2O)[C@@H]1O (mixture of isomers) [LNnT, lacto-N-neotetraose]
- activity of the FXRα1/α2 promoter in a luciferase assay [10]: significantly increased
- lipogenesis in cultured primary hepatocytes [6]: blocked lipogenesis in cultured primary hepatocytes in a dose-dependent manner

— patent US20140315781A1, “METHODS OF TREATING FATTY LIVER DISEASE WITH HELMINTH-DERIVED GLYCAN-CONTAINING COMPOUNDS” (priority 2011, published 2014)
